# Values of other authors, collected in patent publication US6197535A, “Methods for purifying and assaying a conus γ-carboxylase” (University of Utah Research Foundation, priority 1999, dated 2001).
# Test system: N-methyl-D-aspartate receptor
# Conditions: cited from earlier work
substance,measurement,value
Conantokin-G,inhibition of the N-methyl-D-aspartate receptor,inhibits
